Experimental data published in patent publication US20190125745A1, “TREATMENT AND DIAGNOSIS OF CANCER” (Rgenix, Inc., priority 2014, published 2019).

Experiments:
[1] = test system: MeWo, HT-144, SK-Mel-2, SK-Mel-334.2 human melanoma cells; test: Cell invasion assay (trans-well matrigel); assay type: cell-based; conditions: 1 μM, 72 hours; for inhibiting cancer progression phenotypes (cell invasion, endothelial recruitment): MeWo cells, versus lower potency LXR agonists
From the text: FIG. 2. Activation of LXRβ Signaling Suppresses Melanoma Cell Invasion and Endothelial Recruitment. (A) Heat-map depicting microarray-based expression levels of LXR and RXR isoforms in the NCI-60 melanoma cell line collection. The heat map for these genes is extracted from the larger nuclear hormone receptor family heat map (FIG. 3). Color-map key indicates the change in standard deviations for the expression value of each receptor relative to the average expression value of all microarray-profiled genes (>39,000 transcript variants) in each cell line. (B) Cell invasion by 1×10^5 MeWo, 5×10^4 HT-144, 5×10^5 SK-Mel-2, and 5×10^4 SK-Mel-334.2 human melanoma cells. Cells were treated with DMSO, GW3965, T0901317, or Bexarotene at 1 μM for 72 hours and subjected to a trans-well matrigel invasion assay. n=4-8. (C) 5×10^4 MeWo, HT-144, SK-Mel-2, and SK-Mel-334.2 human melanoma cells were tested for their ability to recruit 1×10^5 endothelial cells in a trans-well migration assay, following treatment of the melanoma cells with DMSO, GW3965, T0901317, or Bexarotene at 1 μM for 72 hours. n=4-8. […] Scale bar, 50 μm. *p<0.05, **p<0.01, ***p<0.001, ****p<0.0001.
The cell invasion assay was performed as previously described in detail (Pencheva et al., 2012) using a trans-well matrigel invasion chamber system (354480, BD Biosciences). In brief, various melanoma cells were cultured in the presence of DMSO, GW3965, T0901317, or Bexarotene at 1 μM for 56 hours, after which melanoma cells were switched to starvation media (0.2% FBS) for 16 hours in the presence of each drug. Following starvation, cells were seeded into matrigel-coated trans-well inserts, and the invasion assay was allowed to proceed for 24 hours at […]. For ApoE antibody neutralization experiments, 40 μg/mL 1 D7 anti-ApoE blocking antibody (Heart Institute, University of Ottawa, Ottawa, Canada) or […] anti-IgG control antibody (AB-108-C, R&D Systems, Minneapolis, Minn.) was added to each trans-well insert at the start of the assay.
The cells were then serum starved for 16 hours in 0.2% FBS media in the presence of each corresponding drug or DMSO. Following serum starvation, the cells were subjected to the trans-well invasion assay using a matrigel invasion chamber system (354480, BD Biosciences). Invasion chambers were pre-equilibrated prior to the assay by adding 0.5 mL of starvation media to the top and bottom wells. Meanwhile, cancer cells were trypsinized and viable cells were counted using trypan blue. Cancer cells were then resuspended at a concentration of 2×10^5 cells/1 mL starvation media, and 0.5 mL of cell suspension, containing 1×10^5 cells, was seeded into each trans-well. The invasion assay was allowed to proceed for 24 hours at 37° C. […] Following fixation, the inserts were washed in PBS, cut out, and mounted onto slides using VectaShield mounting medium containing DAPI nuclear stain (H-1000, Vector Laboratories). The basal side of each insert was imaged using an inverted fluorescence microscope (Zeiss Axiovert 40 CFL) at 5× magnification, and the number of DAPI-positive cells was quantified using ImageJ.

[2] = test system: ApoE expression; test: ApoE expression by qRT-PCR in human melanoma cells
Protocol: (A-B) Parental MeWo cells were incubated in the presence of DMSO or GW3965 at the indicated concentrations. After 48 hours, total RNA was extracted, and the levels of ApoE (A) and DNAJA4 (B) were determined by qRT-PCR. n=3. (C) Cell invasion by 1×10^5 parental MeWo cells pre-treated with GW3965 or DMSO for 48 hours. n=6-7. p-values based on a one-sided student's t-test. […] (D) Endothelial recruitment by 5×10^4 parental MeWo cells pre-treated with GW3965 or DMSO for 48 hours. n=6-7. p-values based on a one-sided student's t-test. (E) Mice were fed with grain-based chow diet containing GW3965 (20 mg/kg) or a control diet. After 10 days, 4×10^4 parental MeWo cells were tail-vein injected into mice, and the mice were continuously fed with GW3965-containing chow or a control diet throughout the experiment.
(A-C) MeWo (A), HT-144 (B), and WM-266-4 (C) human melanoma cells were treated with GW3965 or T0901317 at the indicated concentrations for 48 hours, and the expression levels of ApoE were analysed by qRT-PCR. n=3. (D) Extracellular ApoE protein levels, quantified by ELISA, in serum-free conditioned media collected from HT-144 human melanoma cells treated with DMSO, GW3965, or T0901317 at 1 μM for 72 hours. n=3-4. […] (I-J) Relative ApoE expression, quantified by qRT-PCR, in MeWo (I) and HT-144 (J) cells transduced with a control shRNA or shRNAs targeting LXRα or LXRβ and subsequently treated with DMSO, GW3965, or T0901317 at 1 μM for 48 hours. n=3-9. (K) Extracellular ApoE protein levels, measured by ELISA, in serum-free conditioned media harvested from HT-144 cells transduced with a control shRNA or an shRNA targeting LXRα or LXRβ and treated with DMSO or GW3965 at 1 μM for 72 hours. n=3.
RNA was extracted from whole cell lysates using the Total RNA Purification Kit (17200, Norgen, Thorold, Canada). 600 ng of total RNA was then reverse transcribed into cDNA using the cDNA First-Strand Synthesis Kit (18080-051, Invitrogen), and quantitative real-time PCR amplification was performed as previously described (Pencheva et al., 2012) using an ABI Prism 7900HT Real-Time PCR System (Applied Biosystems, Austin, Tex.). […]
For every sample, 600 ng of RNA was reverse transcribed into cDNA using the cDNA First-Strand Synthesis kit (Invitrogen). […] Each reaction was carried out in quadruplicates, and ApoE mRNA expression levels were measured by quantitative real-time PCR amplification using an ABI Prism 7900HT Real-Time PCR System (Applied Biosystems). The relative ApoE expression was determined using the ΔΔCt method.

[3] = test system: B16F10 mouse melanoma cells; test: Subcutaneous B16F10 tumor growth in C57BL/6 mice; assay type: in vivo; conditions: for melanoma primary tumor growth in vivo (B16F10): chow, WO-2010-0138598 Ex. 9 10 or 100 mg/kg/day, SB742881 100 mg/kg/day
Protocol: FIG. 4. Therapeutic LXR Activation Inhibits Melanoma Tumor Growth. […] Representative tumor images shown correspond to tumors extracted at the final day (d12). n=10-18 (A), 8-10 (B). (C-E) Primary tumor growth by 1×10^6 MeWo (C), […] SK-Mel-334.2 (D), and 2×10^6 SK-Mel-2 (E) human melanoma cells subcutaneously injected into immunocompromised mice. […] Tumor images shown correspond to last day of measurements. n=6-34 (C), 8 (D), 5 (E). (F) 5×10^4 B16F10 cells were injected subcutaneously into C57BL/6-WT mice. Upon tumor growth to 150 mm^3, mice were fed continuously with a control chow or a chow containing GW3965 (150 mg/kg), and tumor growth was measured daily. n=6-13. […] Tumor volume was calculated as (small diameter)^2×(large diameter)/2. […] Scale bars, 5 mm (A-D), 50 μm (J, K), 25 μm (L).
The mice were palpated daily for tumor formation and after detection of tumors measuring […] in volume, the mice were assigned to a control chow or a chow containing each respective LXR agonist: LXR-623 (20 mg/kg/day), WO-2007-002563 Ex. 19 (100 mg/kg/day), WO-2010-0138598 Ex. 9 (10 mg/kg/day or 100 mg/kg/day), or SB742881 (100 mg/kg/day). The LXR drug compounds were formulated in the mouse chow by Research Diets, Inc. Tumor dimensions were measured using digital calipers, and tumor volume was calculated as (small diameter)^2×(large diameter)/2.

[4] = target: T1, LXRα (Homo sapiens, UniProt Q13133); conditions: cited from earlier work
T1 sequence (Q13133 1-447): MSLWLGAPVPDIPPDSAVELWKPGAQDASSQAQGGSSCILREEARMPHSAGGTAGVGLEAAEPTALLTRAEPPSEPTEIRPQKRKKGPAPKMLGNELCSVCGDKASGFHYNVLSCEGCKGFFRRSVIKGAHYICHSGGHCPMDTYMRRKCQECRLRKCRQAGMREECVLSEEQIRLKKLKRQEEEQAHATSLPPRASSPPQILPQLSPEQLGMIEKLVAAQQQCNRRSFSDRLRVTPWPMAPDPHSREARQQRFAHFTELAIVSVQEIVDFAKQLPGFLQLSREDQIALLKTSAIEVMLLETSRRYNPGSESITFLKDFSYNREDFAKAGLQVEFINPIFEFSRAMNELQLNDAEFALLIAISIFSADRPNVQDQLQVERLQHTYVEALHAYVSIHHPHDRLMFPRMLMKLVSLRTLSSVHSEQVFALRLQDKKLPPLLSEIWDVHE

[5] = test system: ApoE promoter; test: ApoE promoter activity assay (luciferase, ME.1/ME.2); assay type: cell-based, human; conditions: 1 μM
From the text: FIG. 11. LXRβ Activation Suppresses Melanoma Invasion and Endothelial Recruitment by Transcriptionally Enhancing Melanoma-Cell ApoE Expression. […] Scale bar, 50 μm.
The ApoE promoter, consisting of a sequence spanning 980 base pairs upstream and 93 base pairs downstream of the ApoEgene, was cloned into a pGL3-Basic vector (E1751, Promega Corporation, Madison, Wis.) upstream of the firefly luciferase gene using NheI and SacI restriction enzymes. Then, multi-enhancer elements 1 (ME.1) and 2 (ME.2) were cloned directly upstream of the ApoE promoter using MluI and […] restriction enzymes. To assess ApoE promoter- and ME.1/ME.2-driven transcriptional activation by LXR agonists, 5×10^4 MeWo cells were seeded into a 24-well plate. […] To assess transcriptional activation by LXRα or LXRβ, 5×10^4 MeWo cells expressing a control shRNA or shRNA targeting LXRα or LXRβ were seeded into a 24-well plate. […] After 24 hours, cells were lysed, and cell lysate was analyzed for firefly and renilla luciferase activity using the Dual Luciferase Assay System (E1960, Promega) and a Bio-Tek Synergy NEO Microplate Reader. Firefly luciferase signal was normalized to renilla luciferase signal and all data are expressed relative to the luciferase activity ratio measured in the DMSO-treated control cells.

Compound | inhibiting cancer progression phenotypes (cell invasion, endothelial recruitment) [1] | potency of inducing ApoE expression in vitro [2] | melanoma primary tumor growth in vivo (B16F10) [3] | EC50 [4] [µM] | ability to upregulate ApoE transcription and protein expression upon melanoma cell depletion of LXRβ, but not LXRα [5] | ability to suppress invasion and endothelial recruitment upon knockdown of melanoma LXRβ, but not LXRα ([1]; MeWo, HT-144) | primary tumor growth in vivo (FIG. 4) ([3]; mouse, in vivo)
CC(C)(O)c1cn(-c2ccc(-c3cc(F)c(CO)c(S(C)(=O)=O)c3)cc2F)c(C(C)(C)c2c(Cl)cccc2Cl)n1 [Compound 112] | more effective | potently induce | significantly inhibited | – | – | – | –
CC(C)(O)c1cn(-c2ccc(-c3cccc(S(C)(=O)=O)c3)cc2)c(C(C)(C)c2ccccc2Cl)n1 [Compound 113] | – | – | – | 0.101 to 1 | – | – | –
CC(CCOc1cccc(CC(=O)O)c1)N(Cc1cccc(C(F)(F)F)c1Cl)CC(c1ccccc1)c1ccccc1 (centres unmarked) [SB742881 109] | more effective | potently induce | significantly inhibited | – | – | – | –
O=S(=O)(c1ccccc1)N(CC(F)(F)F)c1ccc(C(O)(C(F)(F)F)C(F)(F)F)cc1 [TO901317 110] | – | potently induce | – | – | abrogated | abrogated | inhibit
